Test results: patent US8435762B2, “Chimeric ligand-gated ion channels and methods of use thereof” (Howard Hughes Medical Institute, priority 2008, dated 2013)
Read-outs that look alike come from different tables or passages of the source.

Key:
[1] = biological target: T1, α7-5HT3 wt chimeric receptor (Homo sapiens, UniProt P36544, M226I/T225I); experiment: fluorescence membrane potential (MP) assay, HEK 293 cells; type: cell-based, human/mouse; conditions: dose response curves, MP assay
T1 construct: expressed in transfected cells; host or cells: HEK 293 cells
T1 sequence (P36544 with tags, fused parts or gaps T225I/M226I): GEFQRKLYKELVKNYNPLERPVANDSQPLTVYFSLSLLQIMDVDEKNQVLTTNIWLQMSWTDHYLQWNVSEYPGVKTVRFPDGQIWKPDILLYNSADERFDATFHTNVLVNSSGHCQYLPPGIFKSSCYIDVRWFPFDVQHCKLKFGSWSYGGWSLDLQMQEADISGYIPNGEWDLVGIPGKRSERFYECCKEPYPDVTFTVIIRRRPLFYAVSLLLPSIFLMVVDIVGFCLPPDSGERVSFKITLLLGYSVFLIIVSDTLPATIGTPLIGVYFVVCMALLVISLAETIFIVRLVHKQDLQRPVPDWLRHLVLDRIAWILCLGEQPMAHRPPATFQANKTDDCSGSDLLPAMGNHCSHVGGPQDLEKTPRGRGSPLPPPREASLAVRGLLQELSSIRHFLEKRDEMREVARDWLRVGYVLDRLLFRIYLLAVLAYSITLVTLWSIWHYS

[2] = biological target: T2, α7-5HT3 Q79G (Homo sapiens, UniProt P36544, M226I/Q79G/T225I); experiment: whole cell voltage clamp recordings (Iss, Ipeak); type: cell-based, human/mouse
T2 construct: expressed in transfected cells; host or cells: HEK 293 cells (ATCC CRL-1573)
T2 sequence (P36544 with tags, fused parts or gaps Q79G/T225I/M226I): as the sequence (P36544 with tags, fused parts or gaps T225I/M226I) above, with Q57G counted along it

[3] = biological target: T3, α7-5HT3 Q79G L141S (Homo sapiens, UniProt P36544, L141S/M226I/Q79G/T225I); experiment: whole cell voltage clamp recordings (Iss, Ipeak); type: cell-based, human/mouse; conditions: for EC50: α7 Q79G L141S, IPD 5HT3
T3 construct: expressed in transfected cells
T3 sequence (P36544 with tags, fused parts or gaps Q79G/L141S/T225I/M226I): as the sequence (P36544 with tags, fused parts or gaps T225I/M226I) above, with Q57G, L119S counted along it

[4] = biological target: T3, α7-5HT3 Q79G L141S; experiment: fluorescence membrane potential (MP) assay, HEK 293 cells; type: cell-based, human/mouse; conditions: IPD 5HT3, value (s.e.m.)
[5] = biological target: T4, α7-5HT3 Q79G Q139G (Homo sapiens, UniProt P36544, M226I/Q139G/Q79G/T225I); experiment: whole cell voltage clamp recordings (Iss, Ipeak); type: cell-based, human/mouse
T4 construct: expressed in transfected cells
T4 sequence (P36544 with tags, fused parts or gaps Q79G/Q139G/T225I/M226I): as the sequence (P36544 with tags, fused parts or gaps T225I/M226I) above, with Q57G, Q117G counted along it

[6] = biological target: T4, α7-5HT3 Q79G Q139G; experiment: fluorescence membrane potential (MP) assay, HEK 293 cells; type: cell-based, human/mouse; conditions: IPD 5HT3
[7] = biological target: T2, α7-5HT3 Q79G; experiment: as above; type: cell-based, human/mouse
[8] = biological target: T5, α7-GlyR Q79G (Homo sapiens, UniProt P36544, Q79G); experiment: whole cell voltage clamp recordings (Iss, Ipeak); type: cell-based; conditions: IPD GlyR
T5 construct: expressed in transfected cells; host or cells: HEK 293 cells
T5 sequence (P36544 with tags, fused parts or gaps Q79G): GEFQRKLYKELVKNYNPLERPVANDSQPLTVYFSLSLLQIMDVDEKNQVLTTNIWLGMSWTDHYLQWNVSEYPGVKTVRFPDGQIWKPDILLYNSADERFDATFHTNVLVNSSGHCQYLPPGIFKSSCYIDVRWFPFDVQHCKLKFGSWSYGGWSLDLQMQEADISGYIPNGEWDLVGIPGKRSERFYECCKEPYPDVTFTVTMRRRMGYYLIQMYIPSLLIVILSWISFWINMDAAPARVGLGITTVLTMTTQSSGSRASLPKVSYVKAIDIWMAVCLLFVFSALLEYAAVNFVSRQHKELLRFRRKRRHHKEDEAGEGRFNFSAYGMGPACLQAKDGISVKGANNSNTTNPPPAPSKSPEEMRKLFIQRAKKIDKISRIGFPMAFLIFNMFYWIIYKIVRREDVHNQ

[9] = biological target: T6, α7-5HT3 Q79G Q139M (Homo sapiens, UniProt P36544, M226I/Q139M/Q79G/T225I); experiment: fluorescence membrane potential (MP) assay, HEK 293 cells; type: cell-based, human/mouse
T6 construct: expressed in transfected cells
T6 sequence (P36544 with tags, fused parts or gaps Q79G/Q139M/T225I/M226I): as the sequence (P36544 with tags, fused parts or gaps T225I/M226I) above, with Q57G, Q117M counted along it

[10] = peak current, IPD 5HT3, read-out: EC50-Ipeak
[11] = steady state current, IPD 5HT3, read-out: EC50-Iss
[12] = peak current, read-out: EC50-Ipeak
[13] = steady state current, read-out: EC50-Iss

SMILES | activity against α7-5HT3 wt (unmodified) receptor [1] | EC50 [2, 10] [µM] | EC50 [2, 11] [µM] | EC50 [3, 12] [µM] | shift in the efficacy for α7-5HT3 Q79G L141S ([3]; relative to α7-5HT3 Q79G) | EC50 [3, 13] [µM] | EC50 [4] [µM] | EC50 [5, 10] [µM] | EC50 [5, 11] [µM] | EC50 [6] [µM] | selectivity for Q79G relative to other mutant receptors ([7]; FIG. 5 dose response curves) | EC50 ([7]; read-out: EC50-MP, α7 Q79G, IPD 5HT3, value (s.e.m.)) [µM] | EC50 [8, 12] [µM] | EC50 [8, 13] [µM] | fold improvement in potency (EC50), α7-5HT3 Q79G Q139M relative to α7-5HT3 Q79G ([9]; EC50MP) [fold] | EC50 ([9]; α7 Q79G Q139M, IPD 5HT3, value (s.e.m.), read-out: EC50-MP) [µM]
CCCCc1ccc(C(=O)N[C@@H]2CN3CCC2CC3)cc1 [Compound 9S, (S)-4-butyl-N-(quinuclidin-3-yl)benzamide] | did not induce activate | 4.3 | 2.3 | 12.3 | only slight shift | 4 | 4.1 |  |  |  |  |  |  |  |  | 
O=C(N[C@@H]1CN2CCC1CC2)c1ccc(C(F)(F)F)cc1 [Compound 22S, (S)—N-(quinuclidin-3-yl)-4-(trifluoromethyl)benzamide] | did not induce activate | 2.7 | 0.4 |  |  |  |  | 11.6 ± 3.6 | 2.7 ± 1 | 3.9 | selective | 0.8 | 7.5 | 4.8 | 20 | 0.06 ± 0.04
